Laboratory results published in PubChem BioAssay (NCI).
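Cells were grown in 96-well plates and exposed to each compound for 48 hours at five concentrations; endpoints were interpolated linearly between bracketing concentrations, or set to the highest concentration if not reached. GI50 is the concentration that inhibits growth by half. TGI: concentration producing complete growth inhibition.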

What was measured:
Assay in all cases: growth of human tumour cells (NCI), 48 h
786-0 renal = test system: 786-0 renal
A498 renal = test system: A498 renal
A549 NSCLC = test system: A549 NSCLC
ACHN renal = test system: ACHN renal
BT-549 breast = test system: BT-549 breast
CAKI-1 renal = test system: CAKI-1 renal
CCRF-CEM leukemia = test system: CCRF-CEM leukemia
COLO 205 colon = test system: COLO 205 colon
DU-145 prostate = test system: DU-145 prostate
EKVX NSCLC = test system: EKVX NSCLC
HCC-2998 colon = test system: HCC-2998 colon
HCT-116 colon = test system: HCT-116 colon
HCT-15 colon = test system: HCT-15 colon
HL-60(TB) leukemia = test system: HL-60(TB) leukemia
HOP-62 NSCLC = test system: HOP-62 NSCLC
HOP-92 NSCLC = test system: HOP-92 NSCLC
HS 578T breast = test system: HS 578T breast
HT29 colon = test system: HT29 colon
IGROV1 ovarian = test system: IGROV1 ovarian
K-562 leukemia = test system: K-562 leukemia
KM12 colon = test system: KM12 colon
LOX IMVI melanoma = test system: LOX IMVI melanoma
M14 melanoma = test system: M14 melanoma
MALME-3M melanoma = test system: MALME-3M melanoma
MCF7 breast = test system: MCF7 breast
MDA-MB-231 breast = test system: MDA-MB-231 breast
MDA-MB-435 = test system: MDA-MB-435
MOLT-4 leukemia = test system: MOLT-4 leukemia
NCI-H226 lung = test system: NCI-H226 lung
NCI-H23 lung = test system: NCI-H23 lung
NCI-H460 lung = test system: NCI-H460 lung
NCI-H522 lung = test system: NCI-H522 lung
NCI/ADR-RES ovarian = test system: NCI/ADR-RES ovarian
OVCAR-3 ovarian = test system: OVCAR-3 ovarian
OVCAR-4 ovarian = test system: OVCAR-4 ovarian
OVCAR-5 ovarian = test system: OVCAR-5 ovarian
OVCAR-8 ovarian = test system: OVCAR-8 ovarian
PC-3 prostate = test system: PC-3 prostate
RPMI-8226 leukemia = test system: RPMI-8226 leukemia
RXF 393 renal = test system: RXF 393 renal
SF-268 CNS = test system: SF-268 CNS
SF-295 CNS = test system: SF-295 CNS
SF-539 CNS = test system: SF-539 CNS
SK-MEL-2 melanoma = test system: SK-MEL-2 melanoma
SK-MEL-28 melanoma = test system: SK-MEL-28 melanoma
SK-MEL-5 melanoma = test system: SK-MEL-5 melanoma
SK-OV-3 ovarian = test system: SK-OV-3 ovarian
SN12C renal = test system: SN12C renal
SNB-19 CNS = test system: SNB-19 CNS
SNB-75 CNS = test system: SNB-75 CNS
SR leukemia = test system: SR leukemia
SW-620 colon = test system: SW-620 colon
T-47D breast = test system: T-47D breast
TK-10 renal = test system: TK-10 renal
U251 CNS = test system: U251 CNS
UACC-257 melanoma = test system: UACC-257 melanoma
UACC-62 melanoma = test system: UACC-62 melanoma
UO-31 renal = test system: UO-31 renal

O=C(Nc1ccc(-n2ccc3c(NC(=O)c4ccccc4)nccc32)cc1)c1cccc(C(F)(F)F)c1
GI50 (786-0 renal): 0.728 µM | TGI (786-0 renal): 9.14 µM | GI50 (A498 renal): 0.905 µM | TGI (A498 renal): 15.6 µM | GI50 (A549 NSCLC): 0.418 µM | TGI (A549 NSCLC): 9.4 µM | GI50 (ACHN renal): 0.624 µM | TGI (ACHN renal): 14.7 µM | GI50 (BT-549 breast): 2.03 µM | TGI (BT-549 breast): 22.3 µM | GI50 (CAKI-1 renal): 0.326 µM | TGI (CAKI-1 renal): 7.92 µM | GI50 (CCRF-CEM leukemia): 0.313 µM | TGI (CCRF-CEM leukemia): 13.2 µM | GI50 (COLO 205 colon): 1.42 µM | TGI (COLO 205 colon): 10.3 µM | GI50 (DU-145 prostate): 1.64 µM | TGI (DU-145 prostate): 9.71 µM | GI50 (EKVX NSCLC): 4.33 µM | TGI (EKVX NSCLC): > 50 µM | GI50 (HCC-2998 colon): 1.71 µM | TGI (HCC-2998 colon): 11.6 µM | GI50 (HCT-116 colon): 0.177 µM | TGI (HCT-116 colon): 6.92 µM | GI50 (HCT-15 colon): 0.0428 µM | TGI (HCT-15 colon): 6.99 µM | GI50 (HL-60(TB) leukemia): 0.685 µM | TGI (HL-60(TB) leukemia): 15.3 µM | GI50 (HOP-62 NSCLC): 2.02 µM | TGI (HOP-62 NSCLC): 14.5 µM | GI50 (HOP-92 NSCLC): 1.96 µM | TGI (HOP-92 NSCLC): > 50 µM | GI50 (HS 578T breast): 1.42 µM | TGI (HS 578T breast): 13.1 µM | GI50 (HT29 colon): 0.243 µM | TGI (HT29 colon): 4.02 µM | GI50 (IGROV1 ovarian): 1.4 µM | TGI (IGROV1 ovarian): > 50 µM | GI50 (K-562 leukemia): 0.231 µM | TGI (K-562 leukemia): > 23.1 µM | GI50 (KM12 colon): 0.4 µM | TGI (KM12 colon): 7.64 µM | GI50 (LOX IMVI melanoma): 0.182 µM | TGI (LOX IMVI melanoma): 5.4 µM | GI50 (M14 melanoma): 1.38 µM | TGI (M14 melanoma): 9.06 µM | GI50 (MALME-3M melanoma): 2.04 µM | TGI (MALME-3M melanoma): 12.2 µM | GI50 (MCF7 breast): 0.413 µM | TGI (MCF7 breast): 7.94 µM | GI50 (MDA-MB-231 breast): 2.88 µM | TGI (MDA-MB-231 breast): 14.7 µM | GI50 (MDA-MB-435): 0.657 µM | TGI (MDA-MB-435): 4.98 µM | GI50 (MOLT-4 leukemia): 0.29 µM | TGI (MOLT-4 leukemia): > 25.9 µM | GI50 (NCI-H226 lung): 2.56 µM | TGI (NCI-H226 lung): > 50 µM | GI50 (NCI-H23 lung): 3.88 µM | TGI (NCI-H23 lung): > 36.1 µM | GI50 (NCI-H460 lung): 0.119 µM | TGI (NCI-H460 lung): 5.38 µM | GI50 (NCI-H522 lung): 1.07 µM | TGI (NCI-H522 lung): > 13.5 µM | GI50 (NCI/ADR-RES ovarian): 0.724 µM | TGI (NCI/ADR-RES ovarian): 11.9 µM | GI50 (OVCAR-3 ovarian): 1 µM | TGI (OVCAR-3 ovarian): 7.89 µM | GI50 (OVCAR-4 ovarian): 2.7 µM | TGI (OVCAR-4 ovarian): 22.6 µM | GI50 (OVCAR-5 ovarian): 3.07 µM | TGI (OVCAR-5 ovarian): > 50 µM | GI50 (OVCAR-8 ovarian): 0.393 µM | TGI (OVCAR-8 ovarian): 10.3 µM | GI50 (PC-3 prostate): 1.29 µM | TGI (PC-3 prostate): 27.3 µM | GI50 (RPMI-8226 leukemia): 0.614 µM | TGI (RPMI-8226 leukemia): 14.2 µM | GI50 (RXF 393 renal): 1.02 µM | TGI (RXF 393 renal): 5.97 µM | GI50 (SF-268 CNS): 0.473 µM | TGI (SF-268 CNS): 25.6 µM | GI50 (SF-295 CNS): 0.392 µM | TGI (SF-295 CNS): 7.99 µM | GI50 (SF-539 CNS): 0.47 µM | TGI (SF-539 CNS): 11.5 µM | GI50 (SK-MEL-2 melanoma): 1.29 µM | TGI (SK-MEL-2 melanoma): 7.27 µM | GI50 (SK-MEL-28 melanoma): 2.4 µM | TGI (SK-MEL-28 melanoma): 11 µM | GI50 (SK-MEL-5 melanoma): 0.194 µM | TGI (SK-MEL-5 melanoma): 6.65 µM | GI50 (SK-OV-3 ovarian): 0.879 µM | TGI (SK-OV-3 ovarian): 15.4 µM | GI50 (SN12C renal): 1.67 µM | TGI (SN12C renal): > 35.6 µM | GI50 (SNB-19 CNS): 0.729 µM | TGI (SNB-19 CNS): 20.1 µM | GI50 (SNB-75 CNS): 0.707 µM | TGI (SNB-75 CNS): 6.59 µM | GI50 (SR leukemia): 0.0753 µM | TGI (SR leukemia): > 18 µM | GI50 (SW-620 colon): 0.381 µM | TGI (SW-620 colon): 7.32 µM | GI50 (T-47D breast): 4.66 µM | TGI (T-47D breast): 30.9 µM | GI50 (TK-10 renal): 1.53 µM | TGI (TK-10 renal): 12.6 µM | GI50 (U251 CNS): 0.158 µM | TGI (U251 CNS): 7.09 µM | GI50 (UACC-257 melanoma): 2.09 µM | TGI (UACC-257 melanoma): > 21.6 µM | GI50 (UACC-62 melanoma): 0.714 µM | TGI (UACC-62 melanoma): 8.48 µM | GI50 (UO-31 renal): 1.83 µM | TGI (UO-31 renal): 15.9 µM

CCOC(=O)/C=C\[C@H]1OC(C)(C)O[C@H]1[C@H](O)[C@H]1COC(C)(C)O1
TGI (786-0 renal): 39.2 µM | TGI (A498 renal): 37.6 µM | TGI (A549 NSCLC): > 100 µM | TGI (ACHN renal): 32.6 µM | TGI (BT-549 breast): 42.2 µM | TGI (CAKI-1 renal): 7.88 µM | TGI (CCRF-CEM leukemia): 39 µM | TGI (COLO 205 colon): 32.3 µM | TGI (DU-145 prostate): > 100 µM | TGI (EKVX NSCLC): 50.1 µM | TGI (HCC-2998 colon): 28.6 µM | TGI (HCT-116 colon): 39 µM | TGI (HCT-15 colon): 33.1 µM | TGI (HL-60(TB) leukemia): 62.4 µM | TGI (HOP-62 NSCLC): > 100 µM | TGI (HOP-92 NSCLC): 31.3 µM | TGI (HS 578T breast): 93.2 µM | TGI (HT29 colon): 46.1 µM | TGI (IGROV1 ovarian): 37.7 µM | TGI (K-562 leukemia): 44.7 µM | TGI (KM12 colon): > 100 µM | TGI (LOX IMVI melanoma): 39.9 µM | TGI (M14 melanoma): 33 µM | TGI (MALME-3M melanoma): 41.7 µM | TGI (MCF7 breast): 40.7 µM | TGI (MDA-MB-231 breast): 33.9 µM | TGI (MDA-MB-435): 35 µM | TGI (MOLT-4 leukemia): 40.5 µM | TGI (NCI-H226 lung): > 100 µM | TGI (NCI-H23 lung): 50.1 µM | TGI (NCI-H460 lung): > 100 µM | TGI (NCI-H522 lung): 29.7 µM | TGI (NCI/ADR-RES ovarian): > 100 µM | TGI (OVCAR-3 ovarian): 32.2 µM | TGI (OVCAR-4 ovarian): 46.5 µM | TGI (OVCAR-5 ovarian): 32.6 µM | TGI (OVCAR-8 ovarian): > 100 µM | TGI (PC-3 prostate): 37.6 µM | TGI (RPMI-8226 leukemia): 42.3 µM | TGI (RXF 393 renal): 35 µM | TGI (SF-268 CNS): 72.6 µM | TGI (SF-295 CNS): > 100 µM | TGI (SF-539 CNS): 32.1 µM | TGI (SK-MEL-2 melanoma): 52.4 µM | TGI (SK-MEL-28 melanoma): 35.6 µM | TGI (SK-MEL-5 melanoma): 33.5 µM | TGI (SK-OV-3 ovarian): > 100 µM | TGI (SN12C renal): 33.5 µM | TGI (SNB-19 CNS): > 100 µM | TGI (SNB-75 CNS): 13.3 µM | TGI (SR leukemia): 37.2 µM | TGI (SW-620 colon): 36.8 µM | TGI (T-47D breast): 46.7 µM | TGI (TK-10 renal): 30.8 µM | TGI (U251 CNS): 32.6 µM | TGI (UACC-257 melanoma): 55.5 µM | TGI (UACC-62 melanoma): 60.7 µM | TGI (UO-31 renal): 34.4 µM
